First: CC(C)(C)c1ccccc1N1CCN(C(=O)c2ccccn2)CC1
Second: N#Cc1c(N2CCN(C(=O)c3cccs3)CC2)c2ccsc2n(Cc2ccccc2)c1=O
The melting point of the first is lower: 140 to 145 °C for the first, 257 °C for the second.

First: CCOc1cc(C=CC(C)=O)ccc1O
Second: COc1ccc(C=CC(=O)c2c(OC)cc(OC)cc2OC(=O)c2ccco2)cc1
The melting point of the first is lower: 98 to 100 °C for the first, 127 °C for the second.

Compared with CCCCCCCCCCCCCCCc1cc2cc(C(=O)OC)ccc2[nH]1, CCCCCCCCCCC1(CCCCCCCCCC)c2cc(Br)ccc2-c2ccc(-c3cccs3)cc21 is lower in melting point: 89 to 92 °C for the first, 36.9 to 38.4 °C for the second.

First: Cc1cc(C(=O)Nc2ccc(Cl)nc2)ccc1[N+](=O)[O-]
Second: COc1cc([N+](=O)[O-])c2c3c(c4ccccc4nc13)C=CN2
The melting point of the first is higher: 290 °C for the first, 220 to 223 °C for the second.

First: CC(C)Oc1cccc(-n2c(NN)nc3ccccc3c2=O)c1
Second: COc1ccc(N2Cc3cnc(Nc4ccccc4)nc3N([C@@H](C)CO)C2=O)cc1
The melting point of the first is higher: 158 to 160 °C for the first, 140 to 147 °C for the second.

First: CC(C)CC(N=O)C(=O)NC(CC(C)C)C(=O)O (stereo unspecified)
Second: CCOC(=O)c1cc(C(C)C)n(C)n1
The melting point of the first is higher: 134 to 139 °C for the first, 70.5 to 71 °C for the second.

First: CCCC(=NOCC)C1=C(O)CC(c2cc3ccccc3o2)CC1=O (stereo unspecified)
Second: COc1ccc2c(c1)c(-c1ccccc1)nc(=S)n2CC1CC1
The melting point of the first is lower: 70 °C for the first, 180 to 181 °C for the second.

Compared with O=C(O)c1n[nH]c2ncccc12, NC(=S)N1CCCCc2cccnc21 is lower in melting point: 175 to 176 °C for the first, 121 °C for the second.

Compared with COc1cc2ncc(C#N)c(Nc3cc(C)c(C)cc3N)c2cc1OC, COc1cc2ncc(C#N)c(Nc3ccccc3SC)c2cc1OC is lower in melting point: 260 to 262 °C for the first, 245 to 247 °C for the second.

First: O=C(O)CC1=C(n2nc(-c3c(-c4ccccc4)nn4ccccc34)ccc2=O)CCCCC1
Second: O=C(O)Cc1c(-c2ccccc2)nn(-c2ccccc2Cl)c1-c1ccccc1
The melting point of the first is lower: 171 to 172 °C for the first, 191 to 193 °C for the second.

First: CCc1cc2c(s1)SCCc1cc(=O)n(C)nc1-2
Second: Cc1csc(-c2ccc3c(c2)c2cc(-c4ccc(Cl)cc4Cl)c(=O)n(C)c2n3C)n1
The melting point of the first is lower: 168 to 170 °C for the first, 255 to 257 °C for the second.

First: CC1C(=O)N(c2ccccc2O)Sc2ccccc21 (stereo unspecified)
Second: CC=C1c2ccccc2CC(=O)c2ccccc21
The melting point of the first is higher: 162 to 164 °C for the first, 93 to 95 °C for the second.

First: On1c(C(F)(F)F)nc2nc(Br)c(Cl)c(Br)c21
Second: Nc1cc(SCc2ccc(F)cc2)nn1-c1c(Cl)cc(C(F)(F)F)cc1Cl
The melting point of the first is higher: 215 °C for the first, 112 to 113 °C for the second.

First: O=C(c1ccc(Cl)cc1)c1ccc(SC(F)(F)F)cc1
Second: O=C(c1ccc(F)cc1)c1ccc(C(=O)c2ccc(F)cc2)cc1
The melting point of the first is lower: 78 to 79 °C for the first, 218 to 220 °C for the second.

Compared with COc1ccc(-c2ncc(N(C)CCCCOCC(=O)O)nc2-c2ccc(OC)cc2)cc1, COc1ccc(OC(=O)c2c3ccccc3nc3ccccc23)cc1 is higher in melting point: 128 to 130 °C for the first, 202 to 203 °C for the second.

First: COC(=O)c1ccccc1-c1ccc(C)cc1
Second: COC(=O)c1c(C)nc2c(c1N)c1ccccc1n2Cc1ccc(OC)cc1
The melting point of the first is lower: 119 to 121 °C for the first, 142 to 145 °C for the second.

First: NNC(=S)NCc1ccc([N+](=O)[O-])cc1
Second: CC(Oc1ccc(CNc2ccc(Cl)cc2)cc1)C(=O)O (stereo unspecified)
The melting point of the first is higher: 196 to 198 °C for the first, 148 to 149 °C for the second.

First: O=C(O)Cc1cc(Cc2nc3c(F)c(F)cc(F)c3s2)cc(C(=O)O)c1
Second: CC(C)(N)c1ccc(-c2nc(Nc3cc(F)c(F)c(F)c3)ncc2C#N)cc1
The melting point of the first is lower: 203 to 205 °C for the first, 220 °C for the second.

First: C=CCOc1ccccc1OCCOS(C)(=O)=O
Second: CCOC(=O)CC(=O)c1cc(Oc2ccccc2)c(NS(C)(=O)=O)cc1OCc1ccccc1
The melting point of the first is lower: 61 to 63 °C for the first, 85 to 90 °C for the second.

Compared with Nc1cc(S(N)(=O)=O)sc1Cl, NS(=O)(=O)c1cc2[nH]ccc2cc1F is higher in melting point: 138 °C for the first, 181 to 182 °C for the second.

Compared with COc1ccc(C2(c3ccc(N(C)C)cc3N(C)C)OC(=O)c3cc(N(C)C)ccc32)cc1 (stereo unspecified), COc1ccc(/C=C/c2ccc3c(=O)n(-c4ccccc4)ncc3c2)cc1 is higher in melting point: 90 to 94 °C for the first, 198 to 199 °C for the second.

Compared with COc1c(F)cc(CCCn2nnnc2S)cc1F, Fc1ccc(CCCCN2CCN(c3ncc(F)cn3)CC2)cc1 is lower in melting point: 64 to 65 °C for the first, 59 to 61 °C for the second.

O=C(Cl)N1Cc2ccccc2Oc2ccc(Cl)cc21 and OCc1ccccc1-c1ccccc1CO cannot be ordered by melting point: 100 to 102 °C for the first, 98 to 103 °C for the second.

First: O=C(O)CSCCCCCNS(=O)(=O)c1ccc(Cl)cc1
Second: O=C(NCCCCCCCNC(=O)c1ccc(OC(F)(F)C(F)Cl)cc1)c1ccc(OC(F)(F)C(F)Cl)cc1 (stereo unspecified)
The melting point of the first is lower: 93 to 94 °C for the first, 153 to 154 °C for the second.

First: O=C(N1CCCCC1)N1CC(Oc2cccc(C(F)(F)F)c2)C1
Second: NC(=O)N1CC(Oc2ccc(C(F)(F)F)cc2Cl)C1
The melting point of the first is lower: 50 to 52 °C for the first, 156 to 159 °C for the second.

Compared with Cn1nnc(-c2ccc3c(c2)c(C2=CCN(CCN4CCNC4=O)CC2)cn3-c2ccc(F)cc2)n1, O=S(=O)(NC(CCCN1CCN(c2ncc(F)cn2)CC1)c1ccc(F)cc1)c1ccc(F)cc1 (stereo unspecified) is lower in melting point: 201 to 203 °C for the first, 128 to 129 °C for the second.

First: Cc1cccc(NC(=O)NCC(=O)N2C(Cc3ccccc3)SC[C@H]2C(=O)OC(C)(C)C)c1 (stereo partly specified)
Second: CC(C)Cc1nc2ccc(Br)cc2c(-c2ccccc2)c1CNC(=O)OC(C)(C)C
The melting point of the first is lower: 104 °C for the first, 193 to 194 °C for the second.

First: CSc1ccc(-c2n[nH]c(C(F)(F)F)c2-c2ccc(F)cc2)cc1
Second: Cc1cc(OCc2ccc(-c3ccc(F)c(C(F)(F)F)c3)nc2C)ccc1OC(C)(C)C(=O)O
The melting point of the first is higher: 189 to 190 °C for the first, 141 to 143 °C for the second.

First: CCCCCN(CCC12CC3CC(CC(C3)C1)C2)C(=O)NCc1ccccn1
Second: Fc1ccc(OCCCCCN2CCN(c3nccs3)CC2)cc1
The melting point of the first is higher: 87.5 to 92 °C for the first, 42 to 44 °C for the second.

First: COc1ccc(CSC(C)(C)C2(c3ccc(F)cc3F)CO2)cc1 (stereo unspecified)
Second: CC1(C)CCC(C)(C)c2cc(Oc3ccc(C=C(O)C(=O)O)cc3)ccc21
The melting point of the first is lower: 55 to 56 °C for the first, 207 to 210 °C for the second.

First: O=C(Cn1cccn1)c1ccc(F)cc1F
Second: Cc1nccn1Cc1ccccc1
The melting point of the first is higher: 76.4 °C for the first, 51 to 53 °C for the second.

First: CS(=O)(=O)c1ccc(-c2cc(C(=O)c3ccncc3)sc2N2CCOCC2)cc1
Second: CC1(C)OC(c2ccc(S(C)(=O)=O)c(Br)c2)=C(c2ccccc2)C1=O
The melting point of the first is lower: 128 °C for the first, 154 to 155 °C for the second.

First: O=C(Nc1ccc(-n2nc(C(F)(F)F)cc2C(F)(F)F)cc1)C1=CCCC1
Second: COC(=O)C(C)Oc1ncn(-c2cccc(C(F)(F)F)c2)n1 (stereo unspecified)
The melting point of the first is higher: 174 to 175 °C for the first, 135 to 137 °C for the second.

First: C=C(C)C(=O)OCCOc1ccc(-c2cc(OC(=O)C(=C)C)cc(-c3ccc(OCCOC(=O)C(=C)C)cc3)c2)cc1
Second: CCCCCc1c(/C=C/C(=O)Oc2ccc([N+](=O)[O-])cc2)oc2cc(OC)ccc12
The melting point of the first is lower: 99 °C for the first, 120 to 122 °C for the second.

Compared with CCCCCC(=O)OCn1cnc2c1c(=O)n(C)c(=O)n2C, CC(=S)NCC1CN(c2ccc(C(=O)NN)c(F)c2)C(=O)O1 (stereo unspecified) is higher in melting point: 67 to 72 °C for the first, 177 °C for the second.

First: CC(C)c1nc2cc(NC(=O)OC(C)(C)C)ccn2n1
Second: CC(C)Oc1ccc(NC=O)cc1C(F)(F)F
The melting point of the first is higher: 215 to 218 °C for the first, 80 to 82 °C for the second.

Compared with CNc1nc(NCc2ccc(NC(=O)C3CCN(Cc4ccccc4)CC3)cc2)c2ccc(C)cc2n1, O=C(c1ccc(OCc2ccnc3ccccc23)cc1)[NH+]([O-])C1CCN(Cc2ccccc2)CC1 (stereo unspecified) is higher in melting point: 128 °C for the first, 171 to 173 °C for the second.

Compared with C=C(C)CC(O)(C(Nc1cccc2nc(C)ncc12)c1ccc(Cl)cc1OC)C(F)(F)F (stereo unspecified), CC(Oc1ccc2nc(-c3ccccc3OC(N)=O)sc2c1)c1ccccc1C(F)(F)F (stereo unspecified) is higher in melting point: 193 °C for the first, 200 to 205 °C for the second.

First: C#CC(C)(C)N1CCN(C(=O)C(C)(C)C)CC1
Second: CCOCCn1c(C2CCN(C)C(c3ccc(C(C)(C)C)cc3)C2)nc2ccccc21 (stereo unspecified)
The melting point of the first is higher: 106 to 109 °C for the first, 51 to 53 °C for the second.

Compared with CN(O)C(=O)Nc1ccc(Cl)c(C(F)(F)F)c1, COC(=O)c1cccc(-c2c(C#N)nn(-c3c(Cl)cc(C(F)(F)F)cc3Cl)c2N)c1 is higher in melting point: 114 to 115 °C for the first, 214 to 216 °C for the second.

First: COc1nscc1C#N
Second: COC(=O)C(=CNc1sccc1C(=O)O)SC
The melting point of the first is lower: 60 to 62 °C for the first, 192 to 194 °C for the second.

Compared with CN1CCN(CCCNc2ncc3cc(-c4c(Cl)cccc4Cl)c(NC(=O)Nc4ccc(Br)cc4)nc3n2)CC1, COc1cc(-c2nc3ccc(OCCCN4CCCCC4)cc3n2Cc2ccccc2)cc(OC)c1OC is lower in melting point: 171 to 175 °C for the first, 92 °C for the second.

Compared with O=C1C2=C(CCCC2)C(=O)N1c1cc(O)c(Cl)cc1Cl, CC(C(=O)N1CCCC(C)(C)C1)N(C(=O)CN1C(=O)c2ccccc2C1=O)c1ccccc1 (racemic) is higher in melting point: 155 to 157 °C for the first, 171 °C for the second.

First: ON=C(c1ccccc1)c1ccc(C(=NO)c2ccccc2)cc1
Second: Cc1ccc(C(=O)NC(NC(=NC#N)Nc2ccccc2)C(Cl)(Cl)Cl)cc1 (stereo unspecified)
The melting point of the first is higher: 230 to 233 °C for the first, 197 to 199 °C for the second.

First: C=C(C)c1cc(O)cc2nc(-c3ccc(O)cc3)oc12
Second: CCOC(=O)c1c(-c2cccc([N+](=O)[O-])c2)cc(-c2ccccc2)nc1CBr
The melting point of the first is higher: 225 to 228 °C for the first, 125 to 128 °C for the second.

Compared with Cc1oc(-c2ccccc2)nc1CN(C)C(=O)c1ccc(C=C2SC(=O)NC2=O)cc1, CCOC(=O)c1cn(Cc2ccccc2)nc1OCc1ccc(OCc2nc(-c3ccco3)oc2C)c(Cl)c1 is higher in melting point: 95 to 98 °C for the first, 153 to 154 °C for the second.

First: COCc1[nH]c(=O)[nH]c1C(=O)c1ccc(OC)cc1
Second: CCc1c(C(=O)OC(C)C)ncc2[nH]c3ccc4sc(NC(C)=O)nc4c3c12
The melting point of the first is higher: 211 to 212 °C for the first, 208 to 210 °C for the second.

Compared with Fc1cc(I)c2nc[nH]c2c1, CCc1noc(C)c1-c1[nH]c2ccccc2c1CN(C)C is lower in melting point: 210 to 211 °C for the first, 88 to 90 °C for the second.

Compared with Cn1c(-c2nnc(N)s2)cnc1[N+](=O)[O-], Cn1cncc1C(O)(c1ccc(Cl)cc1)c1ccc2nc(-c3cccnc3)nc(-c3cccc(Cl)c3)c2c1 (stereo unspecified) is lower in melting point: 263 to 265 °C for the first, 178 °C for the second.

Compared with CC(C)(C1OCCO1)C(O)(COc1cccc2ccccc12)Cn1ccnc1 (stereo unspecified), Cc1c(C)c(N2Cc3ccccc3C2)c(C)c2c1OC(C)(C)C2 is higher in melting point: 126 °C for the first, 161 to 163 °C for the second.

In the case of C=C(C)Cc1c(C)c(OC(C)=O)c(C)c(C)c1O, the melting point is reported as 109 to 110 °C.

— a melting point compilation (Tetko et al.; mined from patent text by program, amines drawn as free bases though some values may be those of a salt)
